Test results: a melting point compilation (Tetko et al.; mined from patent text by program, amines drawn as free bases though some values may be those of a salt)

Row | SMILES | melting point [°C]
1 | CCOC(=O)c1cnn(-c2ccc(Cl)cc2C(F)(F)F)c1C#N | 70 to 72
2 | CCOC(=O)CC1=C(O)c2sccc2S(=O)(=O)N1C | 161 to 163
3 | CC(C)c1nc(CNS(C)(=O)=O)n(C)c1Sc1cc(Cl)cc(Cl)c1 | 116 to 118
4 | CC1(c2ccc(Br)cc2)Cc2cc(OCC(=O)O)c(Cl)c(Cl)c2C1=O (stereo not drawn) | 171 to 172
5 | Cc1nc(-c2ccc(C#N)cc2)sc1C(=O)N1CC(O)O[C@@](Cn2cncn2)(c2ccc(F)cc2F)[C@H]1C (stereo partly drawn) | 225 to 228
6 | COc1cccc(NC(C)=O)c1 | 81 to 82
7 | CCOC(=O)C(NC=O)=C1CC2CCC(C1)N2C(=O)OCc1ccccc1 | 124
8 | COc1nc(C)n2nc(SCc3ccccc3)nc2c1Cl | 115 to 116
9 | COc1cc(Nc2nccc(-c3ccc(N4CCNCC4)nc3)n2)cc(OC)c1OC | 103
10 | O=C(CBr)Nc1ccc(O)cc1C(=O)O | 213 to 215
11 | O=C(CCC(=O)Oc1cc(O)cc(O)c1)Oc1cc(O)cc(O)c1 | 213 to 217
12 | CCOc1ccc2c(c1)CC(=O)c1cc(C(C)C(N)=O)ccc1S2 (stereo not drawn) | 128 to 130
13 | CCc1nc(/C=C/c2cn(-c3ccccc3)nc2OCc2cc(OCc3nc(-c4ccc(CC(=O)O)cc4)oc3C)no2)cs1 | 156 to 158
14 | O=[N+]([O-])c1cnc(Cl)nc1 | 78 to 80
15 | CN(C)c1ccc(NC(=O)N(C[C@@H]2CCCC[C@H]2CN(C(=O)Nc2ccc(N(C)C)cc2)C2CCCCC2)C2CCCCC2)cc1 (relative stereo) | 108 to 114
16 | N#Cc1cc(C(=O)N=C(N)N)cc(-n2cccc2)c1 | 198 to 200
17 | N#Cc1ccccc1N1CCCN(Cc2cc3cc(F)ccc3[nH]2)CC1 | 194 to 198
18 | CCCCCCCCCCCCCCCCCCOc1ccc(OCCCOc2ccc(OCc3ccccc3)cc2)c(C(=O)N(CC(=O)O)CC(=O)O)c1 | 70 to 74
19 | C[C@@H]1OC(=O)C[C@H]2O[C@@H]12 | 51 to 52
20 | CS(=O)(=O)c1ccc(-c2cccn2-c2ccc(Cl)cc2)cc1 | 184 to 188
21 | O=C(Nc1cccc2c(=O)cc(-c3nnn[nH]3)oc12)c1ccc2c(c1)CCC(COCc1ccccc1)O2 (stereo not drawn) | 214 to 216
22 | CC(C)C(O)c1ccc(-c2ccc(Cl)cc2)cc1 (stereo not drawn) | 71 to 72
23 | OC1=C(c2ccccc2)CC(O)(Cl)C=C1 (stereo not drawn) | 110 to 111
24 | CC(C)Oc1cc(CCCOc2cc(CCC(=O)O)n(-c3ccccc3)n2)n(Cc2ccc(Cl)cc2Cl)n1 | 146 to 148
25 | CCc1cccc(CC)c1NC(=O)NCC1(c2ccccc2)CCCC1 | 165 to 167

Row | SMILES | melting point [°C]
26 | CC(C)(C)c1cc(CCc2ccccc2NC(=O)NC2CCN(Cc3ccccn3)CC2)cc(C(C)(C)C)c1O | 106 to 109
27 | C[Si](C)(C)CCOCn1c(-c2cnn(-c3c(Cl)cc(C(F)(F)F)cc3Cl)n2)nc([N+](=O)[O-])c1Br | 126 to 128
28 | C#CCNC(=O)c1ncn2c1CN(C)C(=O)c1c-2ccc(F)c1Cl | 235 to 237
29 | COC(=O)c1ccccc1-c1ccc(CNc2nc(Cl)nc3ccccc23)cc1 | 75 to 90
30 | Cc1ncsc1C(O)c1ccc(Cl)cc1 (stereo not drawn) | 134
31 | CCOC(=O)CCC(=O)c1ccc(OCCCCCBr)c(CCC(=O)OCC)c1 | 40 to 41
32 | Cc1c(C)c2c(c(C)c1NCc1ccccc1)C(c1ccc(-c3ccccc3)cc1)CO2 (stereo not drawn) | 77 to 78
33 | N#CC(Cc1ccccc1)=NNc1ccc([N+](=O)[O-])cc1 | 158 to 160
34 | Fc1ccc2c(C3CCN(CC4COc5ccccc5O4)CC3)noc2c1 (stereo not drawn) | 86 to 87
35 | CC1Cc2ccc(Cl)cc2C(c2ccc([N+](=O)[O-])cc2)=NN1C(=S)Cl (stereo not drawn) | 210 to 214
36 | C=CC(=O)Nc1ccc2ncnc(Nc3cccc(C)c3)c2c1 | 247 to 248
37 | FCC(F)(F)Sc1nc(-c2ccccc2)c(-c2ccccc2)[nH]1 | 225 to 226
38 | Cc1ncc(CN2CCc3cc(-c4cc(Cl)cc(Cl)c4)ccc3C2)c(N)n1 | 205 to 211
39 | CC(C)c1c(C=C(Cl)Cl)c(-c2ccc(F)cc2)n2c1CCCC2 | 97 to 98
40 | CCN(CC)S(=O)(=O)c1ccc(C#CC(C)(O)C(F)(F)F)cc1 (stereo not drawn) | 140 to 144
41 | CN1CCC(c2c[nH]c3ccc(OS(=O)(=O)c4ccccc4F)cc23)CC1 | 180 to 182
42 | Cc1ccc(CCCNC(=O)Cc2ccc(OCCN)c([N+](=O)[O-])c2)cc1C | 98
43 | COC(CCC(N)=C(SC)S(C)=O)OC (stereo not drawn) | 86 to 87
44 | CC(C)Oc1ccc(CCCO)c(OCc2ccc(Cl)cc2Cl)c1 | 75.5 to 76.5
45 | CC(C)Cc1c[nH]c(-c2ccnc(NC(=O)c3ccccc3)c2)n1 | 103 to 105
46 | O=C1CCCc2nc3cc(F)ccc3c(NCc3ccccc3C(F)(F)F)c21 | 146 to 151
47 | O=C(OCc1ccccc1)N1CCN(c2ccccc2)CC1 | 49 to 51
48 | N#Cc1ncn2c1[C@@H]1CCCN1C(=O)c1cc(F)ccc1-2 | 254 to 256
49 | O=C(NC1=NN(c2ccccc2)CC1)C(F)(F)F | 163 to 165
50 | CC1(C)CCC(C)(C)c2cc(NC(=O)c3ccc(C(=O)O)cn3)ccc21 | 206 to 207

Row | SMILES | melting point [°C]
51 | COc1ccc(COC(=O)C2N3C(=O)C(N4C(=O)c5ccccc5C4=O)C3SCC2(C)O)cc1 (stereo not drawn) | 216 to 217
52 | CC(C)c1cccc(C(C)C)c1NC(=O)CNC(c1ccccc1)c1cccc(C(=O)O)c1 (stereo not drawn) | 190 to 191
53 | c1ccc(CN2CCC3(CC2)OCCO3)cc1 | < 50
54 | Cc1cc(NC(=O)c2ccccc2O)cc(Cl)c1O | 192 to 194
55 | CC1CCN(c2ccc([N+](=O)[O-])cc2C(=O)c2ccc(Cl)cc2)CC1 | 136
56 | COc1ccc(-n2nc(Br)cc2-c2ccc(SC)cc2)cc1 | 144 to 145
57 | Oc1ccc2c(c1)CCC(NCC(O)COc1cccc3ccccc13)C2 (stereo not drawn) | 118 to 120
58 | COc1ccc(C(=O)Nc2ccc(F)c(F)c2)cc1NCc1cccs1 | 172 to 174
59 | COC1=CC(OC)OC(C)C1=O (stereo not drawn) | 73 to 74.5
60 | CCN(CC)C(=O)c1cccc(OC)c1-c1ccccc1 | 55 to 56
61 | CC(c1cccc(C#N)n1)C(O)(Cn1cncn1)c1ccc(F)cc1F (stereo not drawn) | 144 to 146
62 | Cc1cc2cc(CN3CCC(CC(N)=O)CC3)cnc2cc1NC(=O)c1ccc(-c2ccc(F)cc2)cc1 | 249
63 | CCOP(=O)(OCC)c1cccc2c(P(=O)(OCC)OCC)cccc12 | 169 to 171
64 | CC(=O)OC1CSC(Oc2ccc(-c3ccc(C#N)nc3)nc2)C(OC(C)=O)C1OC(C)=O (stereo not drawn) | 247
65 | Cc1nc2c(N)nc3c(c2n1CCCCS(C)(=O)=O)CCCC3 | 213 to 216
66 | CC(=O)C(=Cc1cccc([N+](=O)[O-])c1)P(=O)(OCC(C)(C)C)OCC(C)(C)C | 139 to 140
67 | CCOC(=O)c1nc(C(=O)OCC)nc(C(=O)OCC)n1 | 169 to 170
68 | Nc1nnc(-c2ccc(F)c(F)c2Nc2ccc(Br)cc2F)o1 | 245
69 | OC1CCc2ccc(Oc3c(F)cc(C(F)(F)F)cc3Cl)cc21 (racemic) | 101 to 102
70 | CCc1cn2ccccc2c1S(=O)(=O)c1ccc(OCCCCBr)cc1 | 111
71 | O=C(O)c1ccc(-c2c([N+](=O)[O-])oc3c2ccc2ccccc23)cc1 | > 300
72 | NC(=O)c1ccc(C(=O)Nc2ccc(-n3nc(C(F)(F)F)cc3C(F)(F)F)cc2)cc1 | 290 to 291
73 | O=C(c1ccc(F)cc1)C1CCN(CCn2c(-c3ccccc3)nc3ccccc3c2=O)CC1 | 144
74 | CC(=O)NC[C@H]1CN(c2ccc3c(c2)CCOC3)C(=O)O1 | 142 to 145
75 | CC(C)C[C@@H](C(=O)OC(C)(C)C)N1C(=O)NC(C(F)(F)F)(C(F)(F)F)C1=O | 105 to 106

Row | SMILES | melting point [°C]
76 | COc1ccc2c(c1)C(=O)N(c1ccc3ccn(CC#N)c3c1)C2 | 218 to 220
77 | CC1CC(C)(C)c2ccc(O)cc2O1 (stereo not drawn) | 97 to 98
78 | CCOC(=O)C1CN(C(=O)C2=Cc3cc(OC)c(OC)cc3CCC2)CCN1 (stereo not drawn) | 105 to 106
79 | CN1CCCC1CCNC(=O)Cn1c(-c2ccc(Cl)cc2)nc2cccnc21 (stereo not drawn) | 170 to 172
80 | O=c1ncc(Br)cn1CC(O)C(Cl)(Cl)Cl (stereo not drawn) | 210 to 212
81 | CC/C(=C\CCC(O)(CC)CC)c1csc(COc2ccc(CO)c(CO)c2)c1 | 73 to 74
82 | Nc1cccc(N2C(=O)CCCC2c2ccc(Cl)c(Cl)c2)c1 (stereo not drawn) | 202 to 203
83 | O=C(CCCCCCn1ccc2ccc([N+](=O)[O-])cc21)NS(=O)(=O)c1ccccc1 | 117 to 121
84 | Cc1ccc(S(=O)(=O)c2cn(S(=O)(=O)c3ccccc3)c3ccccc23)cc1 | 189 to 190
85 | Cc1cc(Nc2cc(F)c(F)cc2C(=O)O)n(-c2ccccn2)n1 | 247 to 248
86 | Nc1cc(Br)cnc1CCCCNc1nccc(=O)[nH]1 | 130 to 135
87 | Cc1cccc(-c2[nH]c(C(C)C)nc2-c2cccc(-c3ccc(C(=O)NC4CCOCC4)cc3)c2)n1 | 140
88 | CC(=O)[C@H]1CC[C@H](c2ccc(Cl)cc2)CC1 | 74.6
89 | OCc1ccc(OCc2ccccc2)c2ncccc12 | 192 to 194
90 | CCc1nc2c(cnn2CC)c(NC2CCOCC2)c1CNC(=O)c1cc(C)cc(C(=O)NCc2ccc(C)c(-c3cccc(C=O)c3)c2)c1 | 117 to 120
91 | FC(F)(F)Oc1ccc(C=Cc2nc(CNc3ccc(CCCCn4ccnn4)cc3)co2)cc1 | 103 to 105
92 | COc1ccc(C(=O)c2ccccc2F)c(O)c1C | 118 to 120
93 | Cc1ccc(CC(CC(=O)N2CC3CCCCC3C2)C(=O)O)cc1 (stereo not drawn) | 133 to 134
94 | Cc1nn(C)c(C)c1Oc1cc(Cl)cc(C#N)c1 | 114 to 116
95 | O=c1c2cc(F)c(F)cc2n(CCF)c(=O)n1OCc1ccccc1 | 145 to 147
96 | CCCN(C1CCC(c2c[nH]c3ccc(F)cc23)CC1)C1COc2cccc(OC)c2C1 (stereo not drawn) | 148
97 | Cc1c(C(F)(F)F)cc(Cl)c(-n2cnc(C(F)(F)F)cc2=O)c1Cl | 204 to 206
98 | C[C@H](NC(=O)OC(C)(C)C)C(=O)OCCCNc1cccc2c1C(=O)c1ccccc1C2=O | 58
